Where two headings read alike, the source gives them in different places.
What was measured:
nasal septum mucosae [1] = details: rat, in vivo
Description: (§1) Mucosa morphology was considered a direct indicator of nasal mucosal toxicity. […] This mucosa morphology study was performed in vivo using healthy male SD rats. The rats were lightly anesthetized with diethyl ether and intranasally administered test solutions. Generally, 0.1 mL of the corresponding solution was equally administered to the two nostrils of one rat for 15 consecutive days. Finally, 2 days after stopping intranasal administration, the rats were sacrificed by an intraperitoneal injection of urethane and their hearts were perfused with saline. The nasal septum mucosae were then carefully peeled off, fixed with 3% w/v glutaraldehyde (diluted by PBS), and dehydrated with a gradient of ethanol. Finally, the fixed nasal mucosae were dried at the CO2 critical point, sprayed with ion sputtering, and observed under SEM.

[2] = test system: Human nasal epithelial cells (HNEpCs); details: MTT, n = 8
Description: Human nasal epithelial cells (HNEpCs) purchased from the American Type Culture Collection (Rockville, MD, USA) were used as an in vitro model of the nasal mucosa. The cells were cultured in culture medium (Eagle’s minimum essential medium (MEM) supplemented with 10% (v/v) fetal bovine serum (FBS) and 1% penicillin/streptomycin solution) and maintained in 5% CO2/95% humidified air at 37 °C.
HNEpCs were seeded at a density of 5 × 10^3 cells/well in 96-well plates (Corning, NY, USA) and cultured for 24 h before the experiment. […] The culture medium was used as a negative control, and 20% dimethyl sulfoxide (DMSO) was used as a positive control. Following 6 h of incubation, the test solutions were removed, and the cytotoxicity was determined using a commercial MTT kit. The cells were washed, and then, MTT reagent in culture medium was added for a further 3 h incubation at 37 °C. The remaining media was removed, and 200 μL DMSO was added to each well to dissolve the formazan crystals. The resulting absorbance was read at 490 nm.

HNEpCs = assay: Cellular internalization of FITC-PTH; assay type: cell-based, human
Description: A 20 μg/mL FITC-PTH solution without any permeation enhancer was used as a negative control, and a 20 μg/mL FITC-PTH solution supplemented with 0.1% Triton X-100 was used as a positive control. The test solutions were added to the corresponding wells, and the amount of cellularly internalized PTH was measured after 30 min following sample applications. […] Finally, the cells were lysed with cell lysis buffer. The resulting lysis products were collected for fluorescence measurement and protein content measurement. The fluorescence measurement was carried out using a Varioskan LUX multimode microplate reader with ex/em 485/518 nm, and the protein content was measured by using a commercial BCA protein assay kit (Solarbio Life Sciences). The amount of internalized PTH(1-34) in each well was normalized to the protein content.

[3] = Chemical stability of PTH(1-34) in aqueous buffer solutions at 40 °C (HPLC); assay type: physicochemical
Description: HPLC measurements were performed with an HPLC instrument equipped with a photodiode array detector. A C-18 column (Cosmosil 250 × 4.6 mm, 5 µm, Japan) was used, and the sample solutions were applied via an autosampler (Merck-Hitachi, Darmstadt, Germany). Analysis of PTH(1-34) and its degradation products was performed under the following conditions. Mobile phase A was 0.1% (v/v) TFA in acetonitrile, and mobile phase B was 0.1% TFA (v/v) in water. […] A detection wavelength of 214 nm and column temperature of 25 °C were used.
Stability studies were carried out to clarify the influence of aqueous solvent on the stability of PTH(1-34) during storage and to determine the optimal aqueous environment. First, PBS and ABS were prepared as solvent solutions: 0.063 M PBS was prepared by dissolving 3.73 g sodium dihydrogen phosphate and 36.55 g disodium hydrogen phosphate in 1000 mL Milli-Q water; 0.032 M ABS was prepared as by dissolving 0.664 g glacial acetic acid and 1.64 g sodium acetate trihydrate together in 1000 mL Milli-Q water. Then, 0.016 M ABS, 0.008 M ABS, and 0.004 M ABS were prepared by diluting 0.032 M ABS with Milli-Q water. Following preparation, the pH values of the PBS and ABS solutions were measured using a pH meter (Mettler Toledo FiveEasy Plus).
To examine the stability of peptides in each aqueous medium, 3 mg/mL PTH(1-34) was separately incubated in 0.063 M PBS, 0.032 M ABS, 0.016 M ABS, 0.008 M ABS and 0.004 M ABS. Aliquots of PTH(1-34) were individually incubated at 40 °C, and the PTH(1-34) content was analyzed at 0, 6, 12, 24, 36, 48, 60 and 72 h postincubation. In addition, the impurities of PTH(1-34) in the 0.032 M ABS, 0.016 M ABS, 0.008 M ABS and 0.004 M ABS solutions were quantified by HPLC at the time points of 0, 24, 72 and 120 h postincubation at 40 °C.

[4] = Isoelectric point by capillary electrophoresis; assay type: physicochemical; details: authors' previous capillary electrophoresis (CE) analysis, no reference given
Source text: The essential point for the development of a liquid PTH(1-34) formulation was ensuring the stability of PTH(1-34). In this context, the aqueous environment was screened by utilizing MD simulations and HPLC analysis. In recent decades, MD simulations have been increasingly reported to investigate the conformational equilibria of polypeptides in solution (Colombo et al., [2002]). […] The HPLC analysis results further confirmed that PTH(1-34) had the best chemical stability in 0.008 M ABS. According to our previous capillary electrophoresis (CE) analysis, the isoelectric point (pI) of PTH(1-34) is approximately pH 7.77, indicating easy solubility and stability under acidic condition. The pH values of PBS and ABS were 7.4 and 4.0, respectively. Consequently, 0.008 M ABS had the best stability performance, most likely due to its acidic pH value and low ionic strength.

HNEpC layers = assay: Permeability of FITC-PTH across HNEpC layers (Transwell); assay type: in vitro ADME, human; details: HNEpC monolayer, apical to basolateral, 10 μg/mL FITC-PTH, all tested concentrations (0.015%, 0.010% and 0.005%), fluorescence
Description: […] were seeded at a density of 10 × 10^4 cells/well on Transwell® supports with a pore size of 0.4 μm. TEER (Ω·cm^2) was determined using a Millicell electrical resistance system (ERS) voltohmmeter (Millipore, Bedford, MA, USA). Cell monolayers with TEER values exceeding 500 Ω·cm^2 were used for further experiments. […] Prior to the permeability experiment, the cell monolayers were equilibrated with 1.0 mL Hank's balanced salt solution (HBSS) in the basolateral compartment and 0.4 mL culture medium in the apical chamber for 30 min. Subsequently, the apical culture medium was withdrawn, and 0.2 mL solution of a test solution was applied. Thereafter, 200 μL receiver samples from the basolateral compartment were taken every 30 min for 4 h, and then, 200 μL fresh HBSS was added to the basolateral compartment.

nasal septum mucosae [5] = assay: Nasal mucosal toxicity: mucosa morphology (SEM) after intranasal dosing; details: SD rats, citric acid solutions (0.2-0.6%), 15 consecutive days
Description: as §1

HNEpC monolayers = assay: Effect of permeation enhancers on TEER of HNEpC monolayers; assay type: cell-based, human; details: HNEpC monolayer, apical application, all solutions (0.005%, 0.010%, 0.015%), n = 8
Description: HNEpCs were seeded at a density of 10 × 10^4 cells/well on Transwell® supports with a pore size of 0.4 μm. TEER (Ω·cm^2) was determined using a Millicell electrical resistance system (ERS) voltohmmeter (Millipore, Bedford, MA, USA). Cell monolayers with TEER values exceeding 500 Ω·cm^2 were used for further experiments. […] Prior to the permeability experiment, the cell monolayers were equilibrated with 1.0 mL Hank’s balanced salt solution (HBSS) in the basolateral compartment and 0.4 mL culture medium in the apical chamber for 30 min. Subsequently, the apical culture medium was withdrawn, and 0.2 mL solution of a test solution was applied. Thereafter, 200 μL receiver samples from the basolateral compartment were taken every 30 min for 4 h, and then, 200 μL fresh HBSS was added to the basolateral compartment. Finally, the FITC-PTH concentration in the collected samples was analyzed using a Varioskan LUX multimode microplate reader with ex/em 485/518 nm.
HNEpC monolayers were cultured as described above. The baseline TEER was measured before the experiment for 60 min. […] A chitosan solution at 0.003% w/v in culture medium was used as a positive control. The results for each experiment are presented as percentages relative to their respective baseline TEER.

[6] = cited from earlier work

Molecule: macrogol 15-hydroxystearate [Kolliphor® HS·15]
- observations in rats during intranasal administration (nasal septum mucosae [1]): did not induce any observed discomfort

Molecule: C[S+](C)[O-] [DMSO, dimethyl sulfoxide]
- HNEpC viability ([2]; 6 h, 20% DMSO positive control, vs culture medium): statistically lower

Molecule: Triton X-100
- cellular internalization of FITC-PTH (normalized to protein content) (HNEpCs; 20 μg/mL FITC-PTH with 0.1% Triton X-100, positive control): significantly promoted

Molecule: parathyroid hormone (1-34) [PTH(1-34)]
- impurities of PTH(1-34) ([3]; 3 mg/mL in 0.008 M ABS compared with 0.032, 0.016 and 0.004 M ABS, 120 h, HPLC): lowest amount of impurities
- PTH(1-34) content ([3]; chemical stability, 3 mg/mL in 0.032, 0.016, 0.008 and 0.004 M ABS (pH 4.0), up to 72 h, HPLC UV 214 nm): no detectable decrease
- content of PTH(1-34) ([3]; chemical stability, 3 mg/mL in 0.063 M PBS (pH 7.4), after 72 h of incubation, HPLC UV 214 nm): 76.34%
- isoelectric point (pI) [4]: ~7.77 pH

Molecule: O=C(O)CC(O)(CC(=O)O)C(=O)O [citric acid]
- duration of enhanced permeation rate of FITC-PTH relative to control (HNEpC layers): 60 min
- observations in rats during intranasal administration (nasal septum mucosae [5]): bleeding of the nose was observed
- cellular internalization of FITC-PTH (normalized to protein content) (HNEpCs; 20 μg/mL FITC-PTH with 0.005%, 0.010%, 0.015% enhancer, 30 min, fluorescence 485/518 nm, n = 8): did not exhibit an obvious promotion effect
- HNEpC viability ([2]; 6 h exposure, concentration of 0.1%): 73.03%
- HNEpC viability ([2]; 6 h exposure, concentrations of 0.01% and 0.05%, vs culture medium): comparable with that of the negative control
- time point of TEER reversal to the baseline level (HNEpC monolayers): 40 min

Molecule: nafarelin
- bioavailability ([6]; in vivo): lower than 3%

Molecule: salmon calcitonin
- bioavailability ([6]; intranasal peptide formulations devoid of permeation enhancers, ref Ozsoy et al., [2009]): lower than 3%
